Measured values: ChEMBL document CHEMBL2311352, “Discovery of 4-phenyl-2-phenylaminopyridine based TNIK inhibitors” (Bioorg Med Chem Lett, 2013)
pKd: −log10 of the molar value.

Assays:
[1] = molecular target: Ephrin type-B receptor 1 (Homo sapiens) (UniProt P54762); assay: Inhibition of EPHB1 (unknown origin) at 1 uM
[2] = molecular target: Serine/threonine-protein kinase PAK 4 (Homo sapiens) (UniProt O96013); assay: Inhibition of PAK4 (unknown origin) at 1 uM
[3] = molecular target: Angiopoietin-1 receptor (Homo sapiens) (UniProt Q02763); assay: Inhibition of TIE2 (unknown origin) at 1 uM
[4] = molecular target: Tyrosine-protein kinase ABL2 (Homo sapiens) (UniProt P42684); assay: Inhibition of ABL2 (unknown origin) at 1 uM
[5] = molecular target: Serine/threonine-protein kinase Chk1 (Homo sapiens) (UniProt O14757); assay: Inhibition of CHK1 (unknown origin) at 1 uM
[6] = molecular target: Tyrosine-protein kinase ABL1 (Homo sapiens) (UniProt P00519); assay: Inhibition of ABL1 (unknown origin) at 1 uM
[7] = molecular target: Homeodomain-interacting protein kinase 4 (Homo sapiens) (UniProt Q8NE63); assay: Inhibition of HIPK4 (unknown origin) at 1 uM
[8] = molecular target: Vascular endothelial growth factor receptor 2 (Homo sapiens) (UniProt P35968); assay: Inhibition of VEGFR2 (unknown origin) at 1 uM
[9] = molecular target: Inhibitor of nuclear factor kappa-B kinase subunit epsilon (Homo sapiens) (UniProt Q14164); assay: Inhibition of IKKepsilon (unknown origin) at 1 uM
[10] = molecular target: Tyrosine-protein kinase JAK1 (Homo sapiens) (UniProt P23458); assay: Inhibition of JAK1 (unknown origin) at 1 uM
[11] = molecular target: Fibroblast growth factor receptor 3 (Homo sapiens) (UniProt P22607); assay: Inhibition of FGFR3 (unknown origin) at 1 uM
Fibroblast growth factor receptor 3 (Homo sapiens), sequence (P22607 23-806 limits assumed): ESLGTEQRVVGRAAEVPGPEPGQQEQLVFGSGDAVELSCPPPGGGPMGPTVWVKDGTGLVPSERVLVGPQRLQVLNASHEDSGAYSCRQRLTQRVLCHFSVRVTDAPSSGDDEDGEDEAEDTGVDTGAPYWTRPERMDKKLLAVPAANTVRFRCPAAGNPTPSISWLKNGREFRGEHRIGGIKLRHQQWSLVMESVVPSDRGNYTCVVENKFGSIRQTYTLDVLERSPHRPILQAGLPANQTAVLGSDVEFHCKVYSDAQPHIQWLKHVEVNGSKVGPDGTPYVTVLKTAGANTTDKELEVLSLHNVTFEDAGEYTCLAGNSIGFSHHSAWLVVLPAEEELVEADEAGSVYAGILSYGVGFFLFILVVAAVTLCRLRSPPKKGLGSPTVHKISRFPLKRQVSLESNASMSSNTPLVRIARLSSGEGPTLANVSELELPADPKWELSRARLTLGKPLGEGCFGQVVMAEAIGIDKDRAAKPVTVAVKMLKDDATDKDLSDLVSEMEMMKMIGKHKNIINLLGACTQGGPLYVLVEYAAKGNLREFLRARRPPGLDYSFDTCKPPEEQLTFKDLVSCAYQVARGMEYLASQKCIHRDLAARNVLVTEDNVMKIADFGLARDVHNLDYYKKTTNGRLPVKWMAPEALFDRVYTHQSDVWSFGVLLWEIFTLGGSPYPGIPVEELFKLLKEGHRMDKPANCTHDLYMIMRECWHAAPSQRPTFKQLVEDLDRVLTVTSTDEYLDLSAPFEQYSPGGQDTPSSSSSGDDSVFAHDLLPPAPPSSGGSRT

Caco-2 = assay: Ratio of apparent permeability across basolateral to apical side over apical to basolateral side in human Caco2 cells; format: ADME, cell-based
[12] = molecular target: Platelet-derived growth factor receptor beta (Homo sapiens) (UniProt P09619); assay: Inhibition of PDGFRbeta (unknown origin) at 1 uM
[13] = molecular target: Receptor-type tyrosine-protein kinase FLT3 (Homo sapiens) (UniProt P36888); assay: Inhibition of FLT3 (unknown origin) at 1 uM
[14] = molecular target: Casein kinase II subunit alpha (Homo sapiens) (UniProt P68400); assay: Inhibition of CK2alpha (unknown origin) at 1 uM
Casein kinase II subunit alpha (Homo sapiens), sequence (P68400 whole entry, looked up): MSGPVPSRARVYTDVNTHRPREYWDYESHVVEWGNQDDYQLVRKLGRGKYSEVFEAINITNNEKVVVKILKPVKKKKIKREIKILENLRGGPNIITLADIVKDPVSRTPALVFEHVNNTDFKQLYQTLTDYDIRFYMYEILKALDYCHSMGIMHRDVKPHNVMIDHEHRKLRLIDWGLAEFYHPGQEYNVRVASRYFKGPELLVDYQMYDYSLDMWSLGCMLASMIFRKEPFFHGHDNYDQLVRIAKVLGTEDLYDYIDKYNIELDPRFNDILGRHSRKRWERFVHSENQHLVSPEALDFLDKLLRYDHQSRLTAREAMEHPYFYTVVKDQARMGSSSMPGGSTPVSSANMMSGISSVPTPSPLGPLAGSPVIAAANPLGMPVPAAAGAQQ

[15] = molecular target: Macrophage colony-stimulating factor 1 receptor (Homo sapiens) (UniProt P07333); assay: Inhibition of FMS (unknown origin) at 1 uM
[16] = molecular target: Ephrin type-A receptor 1 (Homo sapiens) (UniProt P21709); assay: Inhibition of EPHA1 (unknown origin) at 1 uM
Ephrin type-A receptor 1 (Homo sapiens), sequence (P21709 whole entry): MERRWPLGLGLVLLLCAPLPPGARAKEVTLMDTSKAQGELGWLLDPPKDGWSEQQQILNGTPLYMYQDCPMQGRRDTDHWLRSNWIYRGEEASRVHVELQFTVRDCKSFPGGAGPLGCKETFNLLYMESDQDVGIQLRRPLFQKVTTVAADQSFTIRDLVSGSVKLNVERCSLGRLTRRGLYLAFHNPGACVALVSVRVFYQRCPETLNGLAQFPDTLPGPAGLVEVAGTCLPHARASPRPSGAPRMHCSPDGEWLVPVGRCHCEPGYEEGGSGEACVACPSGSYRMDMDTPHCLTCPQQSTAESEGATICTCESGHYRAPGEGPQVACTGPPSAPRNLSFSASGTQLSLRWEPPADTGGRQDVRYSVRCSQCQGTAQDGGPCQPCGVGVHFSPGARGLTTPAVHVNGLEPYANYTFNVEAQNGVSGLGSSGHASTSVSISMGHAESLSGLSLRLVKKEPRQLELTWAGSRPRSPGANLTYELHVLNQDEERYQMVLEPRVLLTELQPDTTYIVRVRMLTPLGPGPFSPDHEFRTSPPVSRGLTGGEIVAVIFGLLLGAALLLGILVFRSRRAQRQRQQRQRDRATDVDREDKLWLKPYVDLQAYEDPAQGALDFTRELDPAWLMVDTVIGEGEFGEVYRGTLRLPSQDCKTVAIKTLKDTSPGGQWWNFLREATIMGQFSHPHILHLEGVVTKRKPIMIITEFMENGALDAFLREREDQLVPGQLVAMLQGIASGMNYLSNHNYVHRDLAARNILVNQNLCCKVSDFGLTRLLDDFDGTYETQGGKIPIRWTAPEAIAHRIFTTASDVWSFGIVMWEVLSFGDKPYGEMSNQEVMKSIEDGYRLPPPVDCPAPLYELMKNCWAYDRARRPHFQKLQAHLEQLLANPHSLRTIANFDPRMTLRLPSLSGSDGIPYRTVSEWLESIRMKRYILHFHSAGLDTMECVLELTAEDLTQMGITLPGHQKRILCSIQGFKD

[17] = molecular target: TRAF2 and NCK-interacting protein kinase (Homo sapiens, UniProt Q9UKE5); assay: Competitive binding affinity to TNIK (unknown origin) in presence of ATP
TRAF2 and NCK-interacting protein kinase, sequence (Q9UKE5 whole entry): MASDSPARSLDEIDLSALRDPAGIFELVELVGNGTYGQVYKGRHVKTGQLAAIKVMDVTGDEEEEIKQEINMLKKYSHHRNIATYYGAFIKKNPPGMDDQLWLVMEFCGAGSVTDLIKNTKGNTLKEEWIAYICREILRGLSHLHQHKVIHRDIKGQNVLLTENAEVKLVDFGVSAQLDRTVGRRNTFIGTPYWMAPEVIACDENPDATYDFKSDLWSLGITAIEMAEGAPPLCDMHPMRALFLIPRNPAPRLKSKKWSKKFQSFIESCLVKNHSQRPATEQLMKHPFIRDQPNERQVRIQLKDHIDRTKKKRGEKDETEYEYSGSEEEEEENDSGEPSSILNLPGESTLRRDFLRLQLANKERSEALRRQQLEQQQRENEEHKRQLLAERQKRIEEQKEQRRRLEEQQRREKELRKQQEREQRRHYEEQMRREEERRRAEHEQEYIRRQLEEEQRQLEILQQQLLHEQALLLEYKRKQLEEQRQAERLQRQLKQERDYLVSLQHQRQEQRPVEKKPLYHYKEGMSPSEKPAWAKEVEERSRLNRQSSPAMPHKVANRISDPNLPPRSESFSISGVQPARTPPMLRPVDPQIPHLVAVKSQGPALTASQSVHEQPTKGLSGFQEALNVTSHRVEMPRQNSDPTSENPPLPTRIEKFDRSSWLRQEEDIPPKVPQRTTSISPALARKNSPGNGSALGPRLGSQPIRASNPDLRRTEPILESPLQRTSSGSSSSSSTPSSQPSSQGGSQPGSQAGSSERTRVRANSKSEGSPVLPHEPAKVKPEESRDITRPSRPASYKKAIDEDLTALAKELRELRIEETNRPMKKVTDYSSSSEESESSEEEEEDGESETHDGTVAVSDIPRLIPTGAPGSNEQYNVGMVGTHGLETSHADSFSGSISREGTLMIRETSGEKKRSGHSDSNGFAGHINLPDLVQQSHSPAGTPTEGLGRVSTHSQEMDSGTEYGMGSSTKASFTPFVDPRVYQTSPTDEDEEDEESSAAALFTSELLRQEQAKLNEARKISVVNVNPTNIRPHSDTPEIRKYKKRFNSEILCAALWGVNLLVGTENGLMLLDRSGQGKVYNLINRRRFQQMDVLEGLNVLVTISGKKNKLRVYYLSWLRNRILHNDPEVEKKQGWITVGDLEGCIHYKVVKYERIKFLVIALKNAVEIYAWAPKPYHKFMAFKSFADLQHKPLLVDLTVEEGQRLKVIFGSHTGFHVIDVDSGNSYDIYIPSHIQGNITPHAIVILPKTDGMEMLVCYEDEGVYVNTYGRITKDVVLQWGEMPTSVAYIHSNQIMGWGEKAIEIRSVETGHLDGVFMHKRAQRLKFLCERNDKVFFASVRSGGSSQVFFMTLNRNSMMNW

[18] = molecular target: Tyrosine-protein kinase Lyn (Homo sapiens) (UniProt P07948); assay: Inhibition of LYN (unknown origin) at 1 uM
[19] = molecular target: Serine/threonine-protein kinase Chk2 (Homo sapiens) (UniProt O96017); assay: Inhibition of CHK2 (unknown origin) at 1 uM
[20] = molecular target: Tyrosine-protein kinase Fgr (Homo sapiens) (UniProt P09769); assay: Inhibition of FGR (unknown origin) at 1 uM
Tyrosine-protein kinase Fgr (Homo sapiens), sequence (P09769 2-529 limits assumed): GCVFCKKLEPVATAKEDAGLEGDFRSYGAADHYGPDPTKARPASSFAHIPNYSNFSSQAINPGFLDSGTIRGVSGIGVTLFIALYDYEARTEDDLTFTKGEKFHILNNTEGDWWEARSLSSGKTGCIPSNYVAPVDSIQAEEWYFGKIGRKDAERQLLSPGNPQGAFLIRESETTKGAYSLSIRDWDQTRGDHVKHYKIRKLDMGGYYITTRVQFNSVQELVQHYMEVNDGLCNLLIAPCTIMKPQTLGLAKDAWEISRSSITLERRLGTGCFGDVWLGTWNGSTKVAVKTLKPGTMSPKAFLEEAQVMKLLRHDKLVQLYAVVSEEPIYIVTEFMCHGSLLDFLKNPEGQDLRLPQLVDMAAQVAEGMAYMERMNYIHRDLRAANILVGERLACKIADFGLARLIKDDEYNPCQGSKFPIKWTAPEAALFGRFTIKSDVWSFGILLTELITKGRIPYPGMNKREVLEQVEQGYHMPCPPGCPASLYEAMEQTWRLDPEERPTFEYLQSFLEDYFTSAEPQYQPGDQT

[21] = molecular target: Focal adhesion kinase 1 (Homo sapiens) (UniProt Q05397); assay: Inhibition of FAK (unknown origin) at 1 uM
Focal adhesion kinase 1 (Homo sapiens), sequence (Q05397 2-1052 limits assumed): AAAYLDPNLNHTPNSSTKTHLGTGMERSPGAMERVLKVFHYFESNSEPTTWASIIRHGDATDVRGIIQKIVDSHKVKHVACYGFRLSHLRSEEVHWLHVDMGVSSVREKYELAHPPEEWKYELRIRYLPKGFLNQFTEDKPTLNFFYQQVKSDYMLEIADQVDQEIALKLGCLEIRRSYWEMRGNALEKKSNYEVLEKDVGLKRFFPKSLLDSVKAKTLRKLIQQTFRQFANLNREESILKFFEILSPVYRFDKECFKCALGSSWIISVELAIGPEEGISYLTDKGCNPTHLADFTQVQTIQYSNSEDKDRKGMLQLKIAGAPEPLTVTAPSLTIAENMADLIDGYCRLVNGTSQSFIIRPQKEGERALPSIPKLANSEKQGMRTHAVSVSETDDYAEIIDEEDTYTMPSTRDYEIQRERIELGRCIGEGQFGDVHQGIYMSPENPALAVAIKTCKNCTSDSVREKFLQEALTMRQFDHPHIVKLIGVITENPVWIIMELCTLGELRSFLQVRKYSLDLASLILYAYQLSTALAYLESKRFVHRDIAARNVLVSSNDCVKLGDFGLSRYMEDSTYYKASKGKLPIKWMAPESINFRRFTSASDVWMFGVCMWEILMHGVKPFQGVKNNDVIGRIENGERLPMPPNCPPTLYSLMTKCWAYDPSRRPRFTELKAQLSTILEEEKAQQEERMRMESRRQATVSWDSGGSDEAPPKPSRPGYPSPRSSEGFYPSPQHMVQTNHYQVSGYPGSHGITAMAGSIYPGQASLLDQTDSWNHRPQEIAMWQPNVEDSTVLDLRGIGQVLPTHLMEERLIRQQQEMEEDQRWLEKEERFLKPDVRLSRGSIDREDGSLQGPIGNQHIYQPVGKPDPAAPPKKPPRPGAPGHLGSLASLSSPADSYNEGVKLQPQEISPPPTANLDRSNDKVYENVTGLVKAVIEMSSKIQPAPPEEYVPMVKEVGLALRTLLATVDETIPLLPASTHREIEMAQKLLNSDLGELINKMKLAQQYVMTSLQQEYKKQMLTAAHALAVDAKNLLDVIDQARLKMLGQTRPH

[22] = molecular target: Tyrosine-protein kinase JAK2 (Homo sapiens) (UniProt O60674); assay: Inhibition of JAK2 (unknown origin) at 1 uM
[23] = molecular target: Vascular endothelial growth factor receptor 3 (Homo sapiens) (UniProt P35916); assay: Inhibition of VEGFR3 (unknown origin) at 1 uM
[24] = molecular target: Tyrosine-protein kinase Lck (Homo sapiens) (UniProt P06239); assay: Inhibition of LCK (unknown origin) at 1 uM
[25] = molecular target: BDNF/NT-3 growth factors receptor (Homo sapiens) (UniProt Q16620); assay: Inhibition of TRKB (unknown origin) at 1 uM
[26] = molecular target: Protein-tyrosine kinase 6 (Homo sapiens) (UniProt Q13882); assay: Inhibition of BRK (unknown origin) at 1 uM
[27] = molecular target: Cyclin-dependent kinase 2/cyclin A (Homo sapiens) (UniProt P24941+P20248+P78396); assay: Inhibition of CDK2/cyclin A (unknown origin) at 1 uM; format: protein-complex assay

COc1cc(Nc2ncc(Cl)c(-c3cccc(CC#N)c3)n2)ccc1N1CCN(C)CC1
inhibition [1]: 50%
inhibition [2]: 50%
inhibition [3]: 50%
inhibition [4]: > 80%
inhibition [5]: > 80%
inhibition [6]: > 80%
inhibition [7]: > 80%
inhibition [8]: > 95%
inhibition [9]: > 95%
inhibition [10]: > 80%
inhibition [11]: > 95%
Ratio (Caco-2): 0.96
inhibition [12]: > 80%
inhibition [13]: > 95%
inhibition [14]: > 80%
inhibition [15]: > 80%
inhibition [16]: 50%
pKd [17]: 7.07
inhibition [18]: > 80%
inhibition [19]: > 80%
inhibition [20]: 50%
inhibition [21]: 50%
inhibition [22]: > 95%
inhibition [23]: > 95%
inhibition [24]: > 80%
inhibition [25]: > 80%
inhibition [26]: > 80%
inhibition [27]: > 50%
